One block for each compound: values may come before it.
Assays:
[1] = formulation of elacytarabine model substance with egg PC/egg PG; format: physicochemical
Experimental: (§1) It was investigated if the unexpectedly high concentration (15 mg/mL-60 mg/mL) of the active compound achieved in the formulations described in Examples 1 through 7, and under section 6, Manufacture of the Formulation, was unique to a chemical compound as shown in Formula (I) or if the method was of a more general nature. The structurally similar compound elacytarabine (ara-C-5′-elaidic acid ester) as shown in Formula (II) was used as a related model substance. This model substance contains the same 5′-elaidic acid ester moiety as found in Formula (I) (R1=R3=H, R2=elaidate), and the same cytosine nucleoside ring system. The minor difference between the compounds described in Formula (I) and Formula (II) is the substitution at the 2′ position of the ribose ring for Formula (I) contains geminal fluorines, while Formula (II) contains H and OH.
It is concluded that the Formula I compound provides unexpectedly unique attributes of high loading and stability to the described lipid based formulations.

[2] = rapid deamination to dFdU; cited from earlier work
[3] = drug load / particle formation of gemcitabine-5′-elaidate in alternative formulations; format: physicochemical
Experimental: Particle formation without the use of phospholipids was not successful. Gemcitabine-5′-elaidic acid ester was dissolved in ethanol in a weight ratio of 1:24. The mixture was stirred until all solid material was dissolved.
The ethanol solution was thereafter injected into a […] with vigorous mixing. The weight ratio of ethanol solution to the glycerol solution was 1:12. The mixture appeared to contain conglomerates as determined by visual inspection.
Mixed micellar formulations with phospholipids and non-ionic surfactants were not successful in preparation of high drug load formulations. Mixed micelles were prepared using a 1:1 weight ratio of egg lecithin:Tween 20 for a final concentration of 50 mg/mL dissolved solids.
Liposomal formulations with egg lecithin and oleic acid were not successful in preparation of high drug load formulations. Liposomes were prepared by means of dissolution of gemcitabine-5′-elaidate, egg lecithin, and oleic acid in a molar ratio of 1:14.4:2 in ethanol. The solvent was evaporated and the residual solids dispersed into 2.6% glycerol in water using an Ultraturrax followed by high pressure homogenization. Stable formulations could be achieved up to 3 mg/mL gemcitabine-5′-elaidate.
as §1

[4] = human, in vivo
Experimental: (§2) The intravenous formulation of gemcitabine-5′-elaidic acid ester as described in Example 1 was used in a phase I, first in human clinical study. The aims of this study were to determine the safety, toxicity, MTD (Maximum Tolerated Dose) and the RD (Recommended Dose) of gemcitabine-5′-elaidic acid ester, to describe its pharmacokinetic (PK) characteristics, and to assess its preliminary antitumor activity.
(§3) Gemcitabine-5′-elaidic acid ester was administered on days (d) 1, 8 and 15 every 4 week by a 30 min IV infusion. The dose range was from 30 to 1600 mg/m2/d. 43 patients were enrolled and the RD was established at 1250 mg/m^2/d. […] Stabilisation of disease (>3 months) reported in 7 patients (pancreas, colon and ovarian cancer) lasting between 3.5 to >8 months.
Gemcitabine-5′-elaidic acid ester was detected in plasma up to 24 hrs post-dosing. […] Urinary excretion of the main metabolite, dFdU, during the first 24 hrs was 48-71% of the dose.

[5] = test system: pancreas, colon and ovarian cancer; experiment: phase I clinical study: preliminary antitumor activity; format: in vivo, human
Experimental: as §2, §3

[6] = human, in vivo; remark: listed apart in the source
Experimental: as §2, §3

[7] = buffer, pH 7.4

- Particle size (Z-.avg) ([1]; Egg PC/egg PG, 10 mg/mL): (Z-.avg) 97 nm
- outcome after filtration ([1]; Egg PC/egg PG, 10 mg/mL): Large lipid agglomerates
- outcome upon storage ([1]; Egg PC/egg PG, 15 mg/mL, storage at 2-8° C.): Precipitation
- Final content ([1]; Egg PC/egg PG, elacytarabine concentration 10 mg/mL): Final content 8 mg/ml.
- Final content ([1]; Egg PC/egg PG, elacytarabine concentration 15 mg/mL): 12 mg/mL
- formulation outcome ([1]; Egg PC/egg PG, elacytarabine concentration 20 mg/mL, during homogenisation): Precipitation during
- formulation outcome ([1]; Egg PC/egg PG, elacytarabine concentration 30 mg/mL, during solvent injection): Precipitation
- formulation outcome ([1]; Formula II compound included in excess of 20 mg/mL): precipitation during processing
- formulation outcome on storage ([1]; target concentrations of less than 15 mg/mL, precipitation and agglomeration): unstable during storage
Structure (SMILES): CCCCCCCC/C=C/CCCCCCCC(=O)OC[C@H]1O[C@@H](n2ccc(N)nc2=O)[C@@H](O)[C@@H]1O [Elacytarabine, ara-C-5′-elaidic acid ester]

Structure (SMILES): Nc1ccn([C@@H]2O[C@H](CO)[C@@H](O)C2(F)F)c(=O)n1 [gemcitabine, 2′,2′-difluorodeoxy-cytidine]
- half-life of gemcitabine in plasma [2]: approximately 10 minutes

Structure (SMILES): CCCCCCCC/C=C/CCCCCCCC(=O)OC[C@H]1O[C@@H](n2ccc(N)nc2=O)C(F)(F)[C@@H]1O [gemcitabine-5′-elaidic acid ester]
- maximal concentration of gemcitabine-5′-elaidate in mixed micelles ([3]; 1:1 egg lecithin:Tween 20, 50 mg/mL dissolved solids): less than 5 mg/mL
- concentration up to which stable liposomal formulations could be achieved ([3]; egg lecithin and oleic acid liposomes, 2.6% glycerol in water): up to 3 mg/mL
- maximal concentration of gemcitabine-5′-elaidate in mixed micelles ([3]; egg lecithin with glycholic acid as surfactant): 2 mg/mL
- particle formation without phospholipids ([3]; ethanol solution injected into water for injection, homogenization attempted): not capable of forming stable particles
- AUC for gemcitabine (dFdC) exposure versus intravenous gemcitabine at comparable dose levels [4]: significantly higher
- time detected in plasma post-dosing ([4]; iv): up to 24 hrs
- stabilisation of disease (>3 months), number of patients ([5]; 43 patients enrolled, pancreas, colon and ovarian cancer): 7 patients
- reduction in tumor mass ([5]; one patient with ovarian cancer): 28.3%
- most frequent toxicities [6]: nausea, fatigue, vomiting and anorexia
- RD (Recommended Dose) ([6]; iv): 1250 mg/m^2/d
- recommended dose for intravenous administration ([6]; iv): 1250 mg/m^2
- half life (hydrolytic degradation) [7]: approximately 30 minutes
